# Experiment: (§1) Compound was tested for ribonucleotide reductase (RR) activity by inhibition of dGTP-activated ADP reduction
row,Km,SMILES
1,34 µM,Nc1ncnc2c1ncn2[C@@H]1O[C@H](COP(=O)(O)OP(=O)(O)O)[C@@H](O)[C@H]1O

# Experiment: as §1
row,SMILES,Ki
1,Nc1ncnc2c1nc(SCCS(=O)(=O)CCCCCCS(=O)(=O)CCSc1nc3c(N)ncnc3n1C1O[C@H](COP(=O)(O)OP(=O)(O)O)[C@@H](O)[C@H]1O)n2C1O[C@H](COP(=O)(O)OP(=O)(O)O)[C@H](O)[C@@H]1O (stereo partly drawn),19 µM
2,Nc1ncnc2c1nc(S)n2C1O[C@@H](COP(=O)(O)OP(=O)(O)O)[C@H](O)[C@@H]1O (stereo partly drawn),158 µM
3,C=CS(=O)(=O)CCCCCCS(=O)(=O)CCSc1nc2c(N)ncnc2n1C1O[C@@H](COP(=O)(O)OP(=O)(O)O)[C@H](O)[C@@H]1O (stereo partly drawn),22 µM

# Further lines, results first:
row,Ki,SMILES
1,77 µM,Nc1ncnc2c1nc(Br)n2[C@@H]1O[C@H](COP(=O)(O)OP(=O)(O)O)[C@@H](O)[C@H]1O
2,13 µM,Nc1nc(O)c2nc(S)n(C3CC(O)C(COP(=O)(O)OP(=O)(O)OP(=O)(O)O)O3)c2n1 (stereo not drawn)
3,9 µM,C=CS(=O)(=O)CCCCCCS(=O)(=O)CCSc1nc2c(O)nc(N)nc2n1C1C[C@@H](O)[C@H](COP(=O)(O)OP(=O)(O)OP(=O)(O)O)O1 (stereo partly drawn)
4,56 µM,Nc1nc(O)c2nc(Br)n(C3CC(O)C(COP(=O)(O)OP(=O)(O)OP(=O)(O)O)O3)c2n1 (stereo not drawn)

# — ChEMBL document CHEMBL1132790, “Synthesis and biological activity of a bivalent nucleotide inhibitor of ribonucleotide reductase” (Bioorg Med Chem Lett, 2000)
